Measurements published in patent US10752640B2, “Compounds active towards bromodomains” (NUEVOLUTION A/S, priority 2014, dated 2020).

molecular target: BRD4 protein (Homo sapiens, UniProt O60885); assay: FRET assay, half maximal inhibitory concentration (IC50); format: binding; conditions: BRD4 protein 50 nM, Biotin-H4KAc4 peptide 12.5 nM; A Further List of Classification
Method in brief: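 Acetylated histone H4 peptide binding (biotin-H4KAc4, 12.5 nM final) to BRD4 (50 nM final) detected by TR-FRET between streptavidin cryptate (2.4 nM) and GST-XL665 antibody (10 nM) in KF/BSA. Buffer: HEPES pH 7.5, NaCl, CHAPS. Compound dilutions from 50 μM in 12.5% DMSO were preincubated with protein for 30 min. Variable-slope IC50.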

IC50 | SMILES
> 10 µM | CN1CCN(c2ccccc2C(=O)Nc2ccc3c(c2)OCC(=O)N3)CC1 [S5, 2-(4-methylpiperazin-1-yl)-N-(3-oxo-4H-1,4-benzoxazin-7-yl)benzamide]
< 0.2 µM | O=C(Nc1ccc2[nH]c(=O)cc(O)c2c1)c1cc(S(=O)(=O)N2CCOCC2)ccc1N1CCOCC1 [S35, N-(4-hydroxy-2-oxo-1H-quinolin-6-yl)-2-morpholino-5-morpholinosulfonyl-benzamide]
> 10 µM | Cc1cc(O)nc2ccc(NC(=O)c3cccc(CN4CCCC4=O)c3)cc12 [S24, N-(2-hydroxy-4-methyl-6-quinolyl)-3-[(2-oxopyrrolidin-1-yl)methyl]benzamide, reference compound]
< 0.2 µM | Cc1cc(O)nc2ccc(NC(=O)c3cc([N+](=O)[O-])ccc3N3CCOCC3)cc12 [S17, N-(2-hydroxy-4-methyl-6-quinolyl)-2-morpholino-5-nitro-benzamide]
< 0.2 µM | COC1CCN(Cc2ccc(N3CCCC3)c(C(=O)Nc3ccc4nc(O)cc(C)c4c3)c2)C1 (centres unmarked) [S88, N-(2-hydroxy-4-methyl-6-quinolyl)-5-[(3-methoxypyrrolidin-1-yl)methyl]-2-pyrrolidin-1-yl-benzamide]
< 0.2 µM | Cc1cc(O)nc2ccc(NC(=O)c3cc(S(=O)(=O)N(C)C)ccc3N3CCCC3C(=O)N(C)C)cc12 (centres unmarked) [S62, 1-[4-(dimethylsulfamoyl)-2-[(2-hydroxy-4-methyl-6-quinolyl)carbamoyl]phenyl]-N,N-dimethyl-pyrrolidine-2-carboxamide]
0.2 to 0.5 µM | Cc1cc(O)nc2ccc(NC(=O)c3cc(CN4CCOCC4)cnc3N3CCC(C)(F)C3)cc12 (centres unmarked) [S97, 2-(3-fluoro-3-methyl-pyrrolidin-1-yl)-N-(2-hydroxy-4-methyl-6-quinolyl)-5-(morpholinomethyl)pyridine-3-carboxamide]
< 0.2 µM | Cc1cc(O)nc2ccc(NC(=O)c3cc(S(=O)(=O)N(C)C)ccc3N3CCCC3c3cc[nH]n3)cc12 (centres unmarked) [S59, 5-(dimethylsulfamoyl)-N-(2-hydroxy-4-methyl-6-quinolyl)-2-[2-(1H-pyrazol-3-yl)pyrrolidin-1-yl]benzamide]
< 0.2 µM | Cc1cc(O)nc2ccc(NC(=O)c3cc(S(=O)(=O)N(C)C)ccc3N3CCCCC3c3ccccc3)cc12 (centres unmarked) [S67, 5-(dimethylsulfamoyl)-N-(2-hydroxy-4-methyl-6-quinolyl)-2-(2-phenyl-1-piperidyl)benzamide]
0.5 to 1 µM | Cc1cc(O)nc2ccc(NC(=O)c3cc(NS(=O)(=O)c4ccccc4)ccc3N3CCN(C)CC3)cc12 [S15, 5-(benzenesulfonamido)-N-(2-hydroxy-4-methyl-6-quinolyl)-2-(4-methylpiperazin-1-yl)benzamide]
< 0.2 µM | Cc1cc(O)nc2ccc(NC(=O)c3cc(S(=O)(=O)N4CCOCC4)ccc3N3CCOCC3)cc12 [S20, N-(2-hydroxy-4-methyl-6-quinolyl)-2-morpholino-5-morpholinosulfonyl-benzamide]
> 10 µM | Cc1cc(O)nc2ccc(NC(=O)c3ccc(N)c([N+](=O)[O-])c3)cc12 [S30, 4-amino-N-(2-hydroxy-4-methyl-6-quinolyl)-3-nitro-benzamide, reference compound]

same assay, conditions: BRD4 protein 50 nM, Biotin-H4KAc4 peptide 12.5 nM; List of Classification

IC50 | SMILES
< 0.2 µM | Cc1noc(C)c1-c1ccc(N2CCOCC2)c(C(=O)Nc2ccc3nc(O)cc(C)c3c2)c1 [Compound-152, 5-(3,5-dimethylisoxazol-4-yl)-N-(2-hydroxy-4-methyl-6-quinolyl)-2-morpholino-benzamide]
< 0.2 µM | Cc1cc2nc(O)cc(C)c2cc1NC(=O)c1cc(-c2c(C)noc2C)ccc1N1CCOCC1 [Compound-155, 5-(3,5-dimethylisoxazol-4-yl)-N-(2-hydroxy-4,7-dimethyl-6-quinolyl)-2-morpholino-benzamide]
0.5 to 1 µM | COc1cc2nc(O)cc(C)c2cc1NC(=O)c1cc(-c2ccoc2)ccc1N1CCOCC1 [Compound-160, 5-(3-furyl)-N-(2-hydroxy-7-methoxy-4-methyl-6-quinolyl)-2-morpholino-benzamide]
0.5 to 1 µM | Cc1cc(O)nc2ccc(NC(=O)c3cc(Br)cnc3N3CCC(F)C3)cc12 (centres unmarked) [Compound-184, 5-bromo-2-(3-fluoropyrrolidin-1-yl)-N-(2-hydroxy-4-methylquinolin-6-yl) nicotinamide]
1 to 10 µM | Cc1cc(O)nc2ccc(NC(=O)c3cc([N+](=O)[O-])cnc3N3CCCC3)cc12 [Compound-23, N-(2-hydroxy-4-methyl-6-quinolyl)-5-nitro-2-pyrrolidin-1-yl-pyridine-3-carboxamide]
0.2 to 0.5 µM | Cc1cc(O)nc2ccc(NC(=O)c3cc(NCC(N)=O)ccc3N3CCOCC3)cc12 [Compound-55, 5-[(2-amino-2-oxo-ethyl)amino]-N-(2-hydroxy-4-methyl-6-quinolyl)-2-morpholino-benzamide]
> 10 µM | Cc1cc(O)nc2ccc(NS(=O)(=O)c3cc(N)ccc3N3CCOCC3)cc12 [Compound-77, 5-amino-N-(2-hydroxy-4-methyl-6-quinolyl)-2-morpholino-benzenesulfonamide]
< 0.2 µM | Cc1cc(O)nc2ccc(NC(=O)c3cc(CN4CCNCC4)ccc3N3CCCC3)cc12 [Compound-2, N-(2-hydroxy-4-methylquinolin-6-yl)-5-(piperazin-1-ylmethyl)-2-(pyrrolidin-1-yl)benzamide]
< 0.2 µM | Cc1cc(O)nc2ccc(NC(=O)c3cc(S(=O)(=O)N4CC(N)C4)ccc3N3CCOCC3)cc12 [Compound-8, 1-(3-(2-hydroxy-4-methylquinolin-6-ylcarbamoyl)-4-morpholinophenylsulfonyl) azetidin-3-aminium 2,2,2-trifluoroacetate]
< 0.2 µM | COC(C)c1ccc(N2CCCC2)c(C(=O)Nc2ccc3nc(O)cc(C)c3c2)c1 (centres unmarked) [Compound-47, N-(2-hydroxy-4-methylquinolin-6-yl)-5-(1-methoxyethyl)-2-(pyrrolidin-1-yl) benzamide]
< 0.2 µM | COc1cc(NC(=O)c2cc(-c3ccoc3)cnc2N2CCOCC2)cc2c(C)cc(O)nc12 [Compound-189, 5-(furan-3-yl)-N-(2-hydroxy-8-methoxy-4-methylquinolin-6-yl)-2-morpholinonicotinamide]
< 0.2 µM | CC(=O)c1cc(C(=O)Nc2ccc3nc(O)cc(C)c3c2)c(N2CCOCC2)cn1 [Compound-207, 2-acetyl-N-(2-hydroxy-4-methylquinolin-6-yl)-5-morpholinoisonicotinamide]
< 0.2 µM | COc1cc(O)nc2ccc(NC(=O)c3cc(CN4CCN(C)CC4)ccc3N3CCCC3)cc12 [Compound-98, N-(2-hydroxy-4-methoxy-6-quinolyl)-5-[(4-methylpiperazin-1-yl)methyl]-2-pyrrolidin-1-yl-benzamide]
< 0.2 µM | Cc1cc(O)nc2ccc(NC(=O)c3cc4c(ccn4CC(N)=O)cc3N3CCCC3)cc12 [Compound-86, 1-(2-amino-2-oxo-ethyl)-N-(2-hydroxy-4-methyl-6-quinolyl)-5-pyrrolidin-1-yl-indole-6-carboxamide]
< 0.2 µM | O=C(Nc1ccc2nc(O)cc(Cl)c2c1)c1cc(CN2CCOCC2)cnc1N1CCOCC1 [Compound-91, N-(4-chloro-2-hydroxy-6-quinolyl)-2-morpholino-5-(morpholinomethyl)pyridine-3-carboxamide]
1 to 10 µM | Cc1cc(O)nc2ccc(NC(=O)c3nc(CN(C)C)ccc3N3CCCC3)cc12 [Compound-37]
< 0.2 µM | Cc1cc2nc(O)cc(C)c2cc1NC(=O)c1cc(-c2cnoc2)ccc1N1CCOCC1 [Compound-163, N-(2-hydroxy-4,7-dimethyl-6-quinolyl)-5-isoxazol-4-yl-2-morpholino-benzamide]
< 0.2 µM | Cc1cc(O)nc2c(C)cc(NC(=O)c3cccnc3N3CCOCC3)cc12 [Compound-136, N-(2-hydroxy-4,8-dimethyl-6-quinolyl)-2-morpholino-pyridine-3-carboxamide]
0.5 to 1 µM | Cc1cc(O)nc2ccc(NC(=O)c3cccnc3N3CCOC4COCC43)cc12 (centres unmarked) [Compound-143, 2-(2,3,4a,5,7,7a-hexahydrofuro[3,4-b][1,4]oxazin-4-yl)-N-(2-hydroxy-4-methyl-6-quinolyl)pyridine-3-carboxamide]
< 0.2 µM | COc1cc2nc(O)cc(C)c2cc1NC(=O)c1cc(-c2c(C)noc2C)ccc1N1CCOCC1 [Compound-161, 5-(3,5-dimethylisoxazol-4-yl)-N-(2-hydroxy-7-methoxy-4-methyl-6-quinolyl)-2-morpholino-benzamide]
< 0.2 µM | Cc1cc(O)nc2ccc(NC(=O)c3cc(C(C)O)ccc3N3CCCC3)cc12 (centres unmarked) [Compound-46, N-(2-hydroxy-4-methylquinolin-6-yl)-5-(1-hydroxyethyl)-2-(pyrrolidin-1-yl) benzamide]
< 0.2 µM | Cc1cc(O)nc2ccc(NC(=O)c3cc(CN4CCOCC4)ccc3N3CCCC3)cc12 [Compound-3, N-(2-hydroxy-4-methylquinolin-6-yl)-5-(morpholinomethyl)-2-(pyrrolidin-1-yl)benzamide]
> 10 µM | Cc1cc(O)nc2ccc(NC(=O)c3cc(S(=O)(=O)N(C)C)ccc3NCCN(C)C)cc12 [Compound-18, 2-(2-dimethylaminoethylamino)-5-(dimethylsulfamoyl)-N-(2-hydroxy-4-methyl-6-quinolyl)benzamide]
< 0.2 µM | Cc1cc(O)nc2ccc(NC(=O)c3cc(C(F)(F)F)cnc3N3CCOCC3)cc12 [Compound-139, N-(2-hydroxy-4-methyl-6-quinolyl)-2-morpholino-5-(trifluoromethyl)pyridine-3-carboxamide]
1 to 10 µM | Cc1cc(O)nc2ccc(NC(=O)c3cc(CN4CCOCC4)cnc3N3CCCC3)nc12 [Compound-93, N-(8-methyl-6-oxo-5H-1,5-naphthyridin-2-yl)-5-(morpholinomethyl)-2-pyrrolidin-1-yl-pyridine-3-carboxamide]
1 to 10 µM | Cc1cc(O)nc2ccc(NC(=O)c3cc(CN4CCOCC4)ccc3N3CCCC3c3cc[nH]n3)cc12 (centres unmarked) [Compound-27, 2-(2-(1H-pyrazol-3-yl)pyrrolidin-1-yl)-N-(2-hydroxy-4-methylquinolin-6-yl)-5-(morpholinomethyl) benzamide]
